Tests used:
[1] = Influence factor test (stability under heat, light, high humidity; HPLC purity); format: physicochemical
Protocol: Experimental method: refer to Pharmacopoeia of the People's Republic of China. 2005 ed. Part 2. Appendix XIX C
HPLC conditions: instrument: Agilent 1100
Chromatographic column: Phenomenex Hyperclone 5μ BDS C18
Mobile phase: acetonitrile: KH2PO4 (10 mM)=70:30
Column temperature: 40° C.

[2] = Solubility of acetic acid solvate (0.1N hydrogen chloride aqueous solution); format: physicochemical; conditions: for Solubility (0.1N hydrogen chloride aqueous solution), descriptive term: Chinese Pharmacopoeia 2005 General Notices
Source text: Sample Sources: the Same as Example 10
Experimental method: refer to Pharmacopoeia of the People's Republic of China. 2005 ed. Part 2. General Notices.

platelet aggregation = conditions: cited from earlier work
[3] = cited from earlier work

Molecule | Purity (HPLC area normalization) tR 6.2 ([1]; 0 day) | Purity (HPLC area normalization) tR 6.2 ([1]; 60° C. for 5 days) | Purity (HPLC area normalization) tR 6.2 ([1]; 60° C. for 10 days) | Purity (HPLC area normalization) tR 6.2 ([1]; RH 92.5% 5 days) | Purity (HPLC area normalization) tR 6.2 ([1]; RH 92.5% 10 days) | Purity (HPLC area normalization) tR 6.2 ([1]; light for 5 days) | Purity (HPLC area normalization) tR 6.2 ([1]; light for 10 days) | Stability of crystal A compared with crystal B ([1]; stability test) | Stability compared with X1 and X2 ([1]; under all the conditions of light, 60° C., and RH 92.5%) | Solubility compared with prasugrel hydrobromate and hydrochlorate [2] | Solubility (0.1N hydrogen chloride aqueous solution), descriptive term [2] | Inhibition of platelet aggregation (platelet aggregation) | Water solubility compared to hydrochloride [3]
CC(=O)Oc1cc2c(s1)CCN(C(C(=O)C1CC1)c1ccccc1F)C2 (stereo not drawn) [Example X3, 2-acetoxy-5-(α-cyclopropylcarbonyl-2fluorobenzyl)-4,5,6,7-tetrahydrothieno[3,2-c]pyridine hydrobromate] | 99.84 | 99.72 | 99.46 | 99.65 | 99.50 | 99.56 | 99.57 | better than crystal B | more stable | better solubility | easily soluble | – | –
maleate | – | – | – | – | – | – | – | – | – | – | – | good activity | –
CC(=O)Oc1cc2c(s1)CCN(C(C(=O)C1CC1)c1ccccc1F)C2 (stereo not drawn) [Example X1] | 99.08 | 98.89 | 98.29 | 98.39 | 98.20 | 98.49 | 98.20 | – | – | – | slightly soluble | good activity | –
Br.CC(=O)Oc1cc2c(s1)CCN(C(C(=O)C1CC1)c1ccccc1F)C2 (stereo not drawn) [Example X2] | 99.83 | 99.39 | 99.01 | 96.62 | 96.12 | 99.40 | 98.83 | – | – | – | degraded | – | improved

Source: patent publication US8772488B2 (Shanghai Institute of Pharmaceutical Industry, priority 2009, dated 2014)
